One may read the EC50 as the midpoint of the concentration-response curve.

Read-outs that look alike come from different tables or passages of the source. Starred links: 1 amine or outer side, 2 acyl side, 3 side chain; linkers in the order of their positions; H or OH if unused. Non-standard residues stand in square brackets, D forms with d. Residues, ends and D or L forms follow the SMILES beside them. Groups on a side chain read outwards from the residue. *: point of attachment. C18 diacid = O=C(O)CCCCCCCCCCCCCCCCC(=O)*; γGlu = O=C(O)[C@H](CCC(=O)[*:2])N[*:1]; εLys = N[C@@H](CCCCN[*:1])C(=O)[*:2]; Aib = CC(C)(N)C(=O)O

Consider three molecules from patent US20220177538A1, “CO-AGONISTS AT GLP-1 AND GIP RECEPTORS SUITABLE FOR ORAL DELIVERY” (Novo Nordisk A/S, priority 2020, published 2022).

Data set [1] is described as follows: Pharmacokinetic study in minipigs after i.v. administration. To be noted: female, Göttingen, minipig, in vivo, iv. The method, then:
The purpose of this example is to determine the half-life in vivo of the derivatives of the present invention after i.v. administration to minipigs, i.e. the prolongation of their time in the body and thereby their time of action. This is done in a pharmacokinetic (PK) study, where the terminal half-life of the derivative in question is determined. By terminal half-life is generally meant the period of time it takes to halve a certain plasma concentration, measured after the initial distribution phase.
Female Göttingen minipigs were obtained from Ellegaard Göttingen Minipigs (Dalmose, Denmark) approximately 7-14 months of age and weighing from approximately 16-35 kg were used in the studies. The minipigs were housed individually and fed restrictedly once daily with SDS minipig diet (Special Diets Services, Essex, UK).
After at 3 weeks of acclimatisation two permanent central venous catheters were implanted in vena cava caudalis in each animal. The animals were allowed 1 week recovery after the surgery, and were then used for repeated pharmacokinetic studies with a suitable wash-out period between successive derivative dosing.
The animals were fasted for approximately 18 hours before dosing and from 0 to 4 hours after dosing but had adlibitum access to water during the whole period.
The sodium salts of compounds of Examples 1 were dissolved to a concentration of 20-40 nmol/mL in a buffer containing 0.007% polysorbate 20, 50 mM sodium phosphate, 70 mM sodium chloride, pH 7.4. […]
Plasma was pipetted into Micronic tubes on dry ice and kept at −20° C. until analysed for plasma concentration of the compounds using ELISA, or a similar antibody-based assay, or LCMS. Individual plasma concentration-time profiles were analysed by a non-compartmental model in Phoenix WinNonLin ver. […] (Pharsight Inc., Mountain View, Calif., USA), and the resulting terminal half-lives (harmonic mean) determined.

For data set [2], the target named is T1, human GIP receptor (Homo sapiens, UniProt P48546).
T1 construct: expressed in transfected cells; host or cells: BHK (parent line BHKTS13), clone BHK CRE luc2P hGIPR
T1 sequence (P48546 22-466): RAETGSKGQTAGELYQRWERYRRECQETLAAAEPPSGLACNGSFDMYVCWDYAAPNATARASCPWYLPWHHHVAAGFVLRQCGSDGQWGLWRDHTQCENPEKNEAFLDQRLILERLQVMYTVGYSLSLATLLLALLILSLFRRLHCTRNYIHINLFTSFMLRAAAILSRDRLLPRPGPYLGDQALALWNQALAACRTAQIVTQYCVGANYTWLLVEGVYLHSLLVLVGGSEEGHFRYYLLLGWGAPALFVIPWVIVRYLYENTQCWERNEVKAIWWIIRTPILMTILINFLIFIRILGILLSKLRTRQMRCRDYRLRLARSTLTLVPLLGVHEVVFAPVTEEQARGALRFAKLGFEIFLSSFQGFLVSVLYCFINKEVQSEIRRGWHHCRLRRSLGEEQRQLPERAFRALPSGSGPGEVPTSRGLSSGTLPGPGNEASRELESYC
Put plainly: In vitro functional potency, CRE luciferase reporter, whole BHK cells (hGIPR). The format is cell-based. To be noted: BHK CRE luc2P hGIPR cells. The method, boiled down: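 BHK CRE luc2P cells stably expressing hGIPR or hGLP-1R were seeded at 5000 cells/well overnight. They were treated 3 h at 37° C with a 12-point, 3.5-fold compound series in buffer with or without HSA, and luciferase luminescence was read. Values come from log(agonist)-response regression, averaging at least two replicates.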
(A reporter such as luciferase makes a cellular process visible.)

[3] abbreviates: hGIPR, CRE Luc 1% HSA EC50, 1% HSA.
[4] abbreviates: 0% HSA, read-out: hGIPR, CRE Luc 0% HSA EC50.

For the molecule `CC[C@H](C)[C@H](NC(=O)[C@H](Cc1ccccc1)NC(=O)[C@H](CCC(=O)O)NC(=O)[C@H](CCCNC(=N)N)NC(=O)[C@H](C)NC(=O)[C@H](C)NC(=O)[C@H](CCC(N)=O)NC(=O)[C@H](CCCCNC(=O)[C@@H](N)CCCCNC(=O)[C@@H](N)CCCCNC(=O)CC[C@H](NC(=O)CCCCCCCCCCCCCCCCC(=O)O)C(=O)O)NC(=O)[C@H](CCC(=O)O)NC(=O)[C@H](CC(C)C)NC(=O)[C@H](CC(C)C)NC(=O)[C@@H](NC(=O)[C@H](CO)NC(=O)[C@H](Cc1ccc(O)cc1)NC(=O)[C@H](CC(=O)O)NC(=O)[C@H](CO)NC(=O)[C@@H](NC(=O)[C@H](Cc1ccccc1)NC(=O)[C@@H](NC(=O)CNC(=O)[C@H](CCC(=O)O)NC(=O)C(C)(C)NC(=O)[C@@H](N)Cc1ccc(O)cc1)[C@@H](C)O)[C@@H](C)O)[C@@H](C)CC)C(=O)N[C@@H](CCC(=O)O)C(=O)N[C@@H](Cc1c[nH]c2ccccc12)C(=O)N[C@@H](CC(C)C)C(=O)N[C@@H](CC(C)C)C(=O)N[C@@H](CCCNC(=N)N)C(=O)NCC(=O)NCC(=O)N1CCC[C@H]1C(=O)N[C@@H](CCC(=O)O)C(=O)N[C@@H](CO)C(=O)NCC(=O)N[C@@H](C)C(=O)N1CCC[C@H]1C(=O)N1CCC[C@H]1C(=O)N1CCC[C@H]1C(=O)N[C@@H](CO)C(=O)O` [Compound 28] (H-Y[Aib]EGTFTSDYSILLEK([εLys-εLys-γGlu-C18 diacid])QAAREFIEWLLRGGPESGAPPPS-OH), the half-life in data set [1] (i.v. administration to minipigs, harmonic mean, read-out: Terminal half-life t1/2 (converted)) is 35 h. The EC50 in data set [2] (hGIPR, CRE Luc 0% HSA EC50, 0% HSA) amounted to 0.0066 nM; in data set [2] (setting [3]), 0.0865 nM.

Molecule `CC[C@H](C)[C@H](NC(=O)[C@H](Cc1ccccc1)NC(=O)[C@H](CCC(=O)O)NC(=O)[C@H](CCC(N)=O)NC(=O)[C@H](C)NC(=O)[C@H](C)NC(=O)[C@H](CCC(N)=O)NC(=O)[C@H](CCCCNC(=O)[C@@H](N)CCCCNC(=O)[C@@H](N)CCCCNC(=O)CC[C@H](NC(=O)CCCCCCCCCCCCCCCCC(=O)O)C(=O)O)NC(=O)[C@H](CCC(=O)O)NC(=O)[C@H](CC(C)C)NC(=O)[C@H](CC(C)C)NC(=O)[C@@H](NC(=O)[C@H](CO)NC(=O)[C@H](Cc1ccc(O)cc1)NC(=O)[C@H](CC(=O)O)NC(=O)[C@H](CO)NC(=O)[C@@H](NC(=O)[C@H](Cc1ccccc1)NC(=O)[C@@H](NC(=O)CNC(=O)[C@H](CCC(=O)O)NC(=O)C(C)(C)NC(=O)[C@@H](N)Cc1ccc(O)cc1)[C@@H](C)O)[C@@H](C)O)[C@@H](C)CC)C(=O)N[C@@H](CCC(=O)O)C(=O)N[C@@H](Cc1c[nH]c2ccccc12)C(=O)N[C@@H](CC(C)C)C(=O)N[C@@H](CC(C)C)C(=O)N[C@@H](C)C(=O)NCC(=O)NCC(=O)N1CCC[C@H]1C(=O)N[C@@H](CO)C(=O)N[C@@H](CO)C(=O)NCC(=O)N[C@@H](C)C(=O)N1CCC[C@H]1C(=O)N1CCC[C@H]1C(=O)N1CCC[C@H]1C(=O)N[C@@H](CO)C(=O)O` [Compound 29] (H-Y[Aib]EGTFTSDYSILLEK([εLys-εLys-γGlu-C18 diacid])QAAQEFIEWLLAGGPSSGAPPPS-OH) showed a half-life in data set [1] of 68 h. Further, the EC50 in data set [2] (setting [4]) was 0.0038 nM; in data set [2] (setting [3]), 0.102 nM.

In data set [1], `CC[C@H](C)[C@H](NC(=O)[C@H](Cc1ccccc1)NC(=O)[C@H](CCC(=O)O)NC(=O)[C@H](CCCNC(=N)N)NC(=O)[C@H](C)NC(=O)[C@H](C)NC(=O)[C@H](CCC(N)=O)NC(=O)[C@H](CCCCNC(=O)[C@@H](N)CCCCNC(=O)[C@@H](N)CCCCNC(=O)CC[C@H](NC(=O)CCCCCCCCCCCCCCCCC(=O)O)C(=O)O)NC(=O)[C@H](CCC(=O)O)NC(=O)[C@H](CC(C)C)NC(=O)[C@H](CC(C)C)NC(=O)[C@@H](NC(=O)[C@H](CO)NC(=O)[C@H](Cc1ccc(O)cc1)NC(=O)[C@H](CC(=O)O)NC(=O)[C@H](CO)NC(=O)[C@@H](NC(=O)[C@H](Cc1ccccc1)NC(=O)[C@@H](NC(=O)CNC(=O)[C@H](CCC(=O)O)NC(=O)C(C)(C)NC(=O)[C@@H](N)Cc1ccc(O)cc1)[C@@H](C)O)[C@@H](C)O)[C@@H](C)CC)C(=O)N[C@@H](CCC(=O)O)C(=O)N[C@@H](Cc1c[nH]c2ccccc12)C(=O)N[C@@H](CC(C)C)C(=O)N[C@@H](CC(C)C)C(=O)N[C@@H](C)C(=O)NCC(=O)NCC(=O)N1CCC[C@H]1C(=O)N[C@@H](CO)C(=O)N[C@@H](CO)C(=O)NCC(=O)N[C@@H](C)C(=O)N1CCC[C@H]1C(=O)N1CCC[C@H]1C(=O)N1CCC[C@H]1C(=O)N[C@@H](CO)C(=O)O` [Compound 31] (H-Y[Aib]EGTFTSDYSILLEK([εLys-εLys-γGlu-C18 diacid])QAAREFIEWLLAGGPSSGAPPPS-OH) had a half-life of 49 h. For the same molecule, the EC50 in data set [2] (setting [4]) was determined as 0.0047 nM; in data set [2] (setting [3]) it was 0.189 nM.
